Among the data in patent US6187802A, “Substituted 4-arylmethylene-2-imino-2,3-dihydrothiazoles and derivatives and their pharmaceutical use” (Knoll Aktiengesellschaft, priority 1997, dated 2001) are inhibition values, retold here.

The target in test [1] is T1, 5-hydroxytryptamine (5-HT) reuptake sites (Rattus norvegicus, UniProt P31652).
T1 construct: Frontal cortical tissue from the brains of male Sprague-Dawley rats; from tissue; host or cells: rat brain frontal cortex (crude synaptosomes in A2, washed membranes in A5)
Nature of the test: displacement of [3H]paroxetine from 5-HT reuptake sites, frontal cortical membranes. Type of test: binding. The conditions noted are these: 10^-6 M test compound, [3H]paroxetine 30 pM, one test only, read-out: 5-HT uptake (% displacement of specific binding of tritiated ligand). Summed up: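 Rat frontal cortex membranes (male, 150-250 g; 2 mg wet tissue/tube) in 50 mM Tris-HCl pH 7.5 with 120 mM NaCl and 5 mM KCl, incubated 2 h at 22 °C with 30 pM [3H]paroxetine and compound at 10^-6 M. Citalopram 1 μM defined non-specific binding; values are % displacement of specific binding from a single test, filtration and scintillation counting.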
In general terms: Loss of bound radioactivity is the signal in a displacement assay; it reports binding, not function.

In test [2] the target is T2, dopamine (DA) reuptake sites (Rattus norvegicus, UniProt P23977).
T2 construct: Striatal tissue from the brains of male Charles River rats weighing 150-250 g; from tissue; host or cells: rat brain striatum (crude synaptosomes in A1, washed membranes in A4)
Briefly: displacement of [3H]GBR 12935 from dopamine reuptake sites, striatal membranes. The conditions noted are these: 10^-6 M test compound, [3H]GBR 12935 1 nM, one test only, read-out: DA uptake (% displacement of specific binding of tritiated ligand). Type of test: binding. Summed up:
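Rat striatal membranes (male rats, 150-250 g) incubated 90 min at 4 °C with 1 nM [3H]GBR 12935 in 50 mM Tris-HCl pH 7.4, 200 mM NaCl, 5 mM KCl; non-specific binding with 1 μM mazindol. Filtration, scintillation counting; value is % displacement of specific binding at 10^-6 M, single test; IA means <50%.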

Test [3] has as its target T3, noradrenaline (NA) reuptake sites (Rattus norvegicus, UniProt Q63380).
T3 construct: Frontal cortical tissue from the brains of male Sprague-Dawley rats; from tissue; host or cells: rat brain frontal cortex (crude synaptosomes in A3, washed membranes in A6)
Briefly: displacement of [3H]nisoxetine from noradrenaline reuptake sites, frontal cortical membranes. The settings on record: 10^-6 M test compound, [3H]nisoxetine 0.6 nM, one test only, read-out: NA uptake (% displacement of specific binding of tritiated ligand). Summed up:
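Washed male rat frontal cortex membranes in 50 mM Tris pH 7.4, 300 mM NaCl, 5 mM KCl, incubated 4 h at 4 °C with 0.6 nM [3H]nisoxetine and test compound at 10^-6 M; mazindol (1 μM) defined non-specific binding. Filtration, scintillation counting; % displacement of specific binding, single test.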

Where a name gives a salt, the structure may show the parent alone. Where only a bound is given, the exact number is not on record here.

T2 sequence (P23977 whole entry): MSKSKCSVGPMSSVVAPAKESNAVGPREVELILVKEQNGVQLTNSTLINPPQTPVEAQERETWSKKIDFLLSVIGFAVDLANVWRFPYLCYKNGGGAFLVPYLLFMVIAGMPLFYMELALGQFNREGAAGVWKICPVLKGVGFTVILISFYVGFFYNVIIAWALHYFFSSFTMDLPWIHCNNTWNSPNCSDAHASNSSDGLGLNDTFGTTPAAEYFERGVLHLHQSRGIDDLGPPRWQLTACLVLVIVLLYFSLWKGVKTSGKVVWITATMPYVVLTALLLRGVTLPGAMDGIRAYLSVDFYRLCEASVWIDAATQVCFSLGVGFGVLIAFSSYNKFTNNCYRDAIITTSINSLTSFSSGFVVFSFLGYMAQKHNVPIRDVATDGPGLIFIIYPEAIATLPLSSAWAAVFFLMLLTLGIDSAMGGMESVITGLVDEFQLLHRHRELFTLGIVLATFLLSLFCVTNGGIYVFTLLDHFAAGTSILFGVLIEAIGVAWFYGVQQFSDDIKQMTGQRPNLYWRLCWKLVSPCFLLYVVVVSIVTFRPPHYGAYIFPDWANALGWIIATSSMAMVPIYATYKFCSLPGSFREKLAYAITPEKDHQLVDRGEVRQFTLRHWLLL
T3 sequence (Q63380 1-617): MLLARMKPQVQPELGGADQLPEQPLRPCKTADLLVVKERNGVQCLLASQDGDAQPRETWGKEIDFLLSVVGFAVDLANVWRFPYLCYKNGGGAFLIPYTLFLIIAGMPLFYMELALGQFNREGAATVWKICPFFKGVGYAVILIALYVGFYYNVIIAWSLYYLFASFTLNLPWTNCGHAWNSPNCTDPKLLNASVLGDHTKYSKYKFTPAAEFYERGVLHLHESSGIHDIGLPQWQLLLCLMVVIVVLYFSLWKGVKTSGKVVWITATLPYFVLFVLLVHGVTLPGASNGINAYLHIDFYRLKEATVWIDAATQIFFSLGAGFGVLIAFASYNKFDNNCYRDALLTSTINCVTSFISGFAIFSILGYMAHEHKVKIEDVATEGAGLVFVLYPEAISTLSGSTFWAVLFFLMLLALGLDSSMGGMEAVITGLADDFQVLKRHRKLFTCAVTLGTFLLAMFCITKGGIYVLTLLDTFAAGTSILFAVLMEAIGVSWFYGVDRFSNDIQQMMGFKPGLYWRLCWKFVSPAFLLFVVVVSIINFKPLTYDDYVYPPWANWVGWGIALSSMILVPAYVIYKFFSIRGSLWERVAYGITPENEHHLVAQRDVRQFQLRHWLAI
T1 sequence (P31652 whole entry): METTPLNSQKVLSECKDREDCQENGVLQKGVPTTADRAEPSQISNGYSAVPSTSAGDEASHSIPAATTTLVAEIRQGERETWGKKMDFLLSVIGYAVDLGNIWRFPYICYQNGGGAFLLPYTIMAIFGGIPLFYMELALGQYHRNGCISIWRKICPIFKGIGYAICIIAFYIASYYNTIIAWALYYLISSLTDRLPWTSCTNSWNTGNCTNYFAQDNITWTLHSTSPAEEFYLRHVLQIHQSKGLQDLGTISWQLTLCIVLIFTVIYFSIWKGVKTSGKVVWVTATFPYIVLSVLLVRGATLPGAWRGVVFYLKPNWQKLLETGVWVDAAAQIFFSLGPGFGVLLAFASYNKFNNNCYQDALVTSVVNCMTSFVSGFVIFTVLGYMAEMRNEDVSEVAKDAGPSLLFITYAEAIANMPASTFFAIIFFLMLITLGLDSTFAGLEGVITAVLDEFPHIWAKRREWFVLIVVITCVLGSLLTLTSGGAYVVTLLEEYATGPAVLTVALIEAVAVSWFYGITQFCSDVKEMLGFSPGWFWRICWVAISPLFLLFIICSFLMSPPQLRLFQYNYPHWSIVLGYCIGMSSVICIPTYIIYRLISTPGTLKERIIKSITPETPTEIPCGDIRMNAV

As for `CC(C)N=c1scc(C2(c3ccc4ccccc4c3)CCC2)n1C(C)C` [Example 39, 3-Isopropyl-2-isopropylimino-4-[1-(2-naphthyl)cyclobutyl]-2,3-dihydrothiazole hydrobromide], the inhibition at 1 µM was found to be 100% in test [1], 108% in test [2] and 58% in test [3].
For the compound `CCOc1ccc(N=c2scc(C3(c4ccc5ccccc5c4)CCC3)n2-c2ccc(OCC)cc2)cc1` [Example 54, 3-(4-Ethoxyphenyl)-2-(4-ethoxyphenylimino)-4-[1-(2-naphthyl)cyclobutyl]-2,3-dihydrothiazole hydrobromide], the results for the inhibition at 1 µM in test [1], in test [2] and in test [3] were under 50%, 69% and under 50%, respectively.
As for `CCN=c1scc(C2(c3ccc(Cl)c(Cl)c3)CCC2)n1CC` [Example 15, 4-[1-(3,4-Dichlorophenyl)cyclobutyl]-3-ethyl-2-ethylimino-2,3-dihydrothiazole hydrobromide], the inhibition at 1 µM in test [1] amounted to 102%; in test [2], 115%; in test [3], 99%.
As to `c1cncc(CN=c2scc(C3(c4ccc5ccccc5c4)CCC3)n2Cc2cccnc2)c1` [Example 47, 4-[1-(2-Naphthyl)cyclobutyl]-3-(3-pyridylmethyl)-2-(3-pyridylmethylimino)-2,3-dihydrothiazole hydrobromide], the inhibition at 1 µM in test [1] is 99%; in test [2], 109%; in test [3] it was 92%.
As to `Clc1ccc(C2(c3csc(=NCCc4ccccc4)n3CCc3ccccc3)CCC2)cc1` [Example 64, 4-[1-(4-Chlorophenyl)cyclobutyl]-3-phenethyl-2-phenethylimino-2,3-dihydrothiazole hydrobromide], the results for the inhibition at 1 µM in test [1], in test [2] and in test [3] were under 50%, 102% and under 50%, respectively.
`Clc1ccc(C2(c3csc(=NCC4CC4)n3CC3CC3)CCC2)cc1Cl` [Example 21, 4-[1-(3,4-Dichlorophenyl)cyclobutyl]-3-cyclopropylmethyl-2-cyclopropylmethylimino-2,3-dihydrothiazole hydrobromide]: the inhibition at 1 µM in test [1] worked out at 103%; in test [2], 108%; in test [3], 50%.
In the case of `FC(F)(F)c1cccc(N=c2scc(C3(c4ccc(Cl)c(Cl)c4)CCC3)n2-c2cccc(C(F)(F)F)c2)c1` [Example 30, 4-[1-(3,4-Dichlorophenyl)cyclobutyl]-3-(3-trifluoromethylphenyl)-2-(3-trifluoromethylphenylimino)-2,3-dihydrothiazole hydrobromide], the inhibition at 1 µM is under 50% in test [1], 79% in test [2] and under 50% in test [3].
On to `C1=C(C2(c3ccc4ccccc4c3)CCC2)N2CCCN=C2S1` [Example 34, 3-[1-(2-Naphthyl)cyclobutyl]-6,7-dihydro-5H-thiazolo[3,2-a]pyrimidine hydrobromide], for which the inhibition at 1 µM in test [1] was found to be 100%; in test [2], 109%; in test [3], 110%.
For `Fc1cccc(C2(C3=CSC4=NCCN34)CCC2)c1` [Example 75, 3-[1-(3-Fluorophenyl)cyclobutyl]-5,6-dihydroimidazo[2,1-b]thiazole hydrobromide] the same measures were 53%, under 50% and under 50%.
Consider `CCCCN=c1scc(C2(c3ccc(Oc4ccccc4)cc3)CCC2)n1CCCC` [Example 59, 3-Butyl-2-butylimino-4-[1-(4-phenoxyphenyl)cyclobutyl]-2,3-dihydrothiazole hydrobromide], for which the inhibition at 1 µM in test [1] was under 50%; in test [2] it was 73%; in test [3] it was under 50%.
For `CN=c1scc(C2(c3ccc(Cl)c(Cl)c3)CCC2)n1C` [Example 14, 4-[1-(3,4-Dichlorophenyl)cyclobutyl]-3-methyl-2-methylimino-2,3 dihydrothiazole hydrobromide], the inhibition at 1 µM came to 96% in test [1], 103% in test [2] and 80% in test [3].
As for `CCOc1ccc(N=c2scc(C3(c4ccc(Cl)c(Cl)c4)CCC3)n2-c2ccc(OCC)cc2)cc1` [Example 32, 4-[1-(3,4-Dichlorophenyl)cyclobutyl]-3-(4-ethoxyphenyl)-2-(4-ethoxyphenylimino)-2,3-dihydrothiazole hydrobromide], the inhibition at 1 µM was under 50% in test [1], 69% in test [2] and under 50% in test [3].
In the case of `COc1ccc(CCN=c2scc(C3(c4ccc(Cl)cc4)CCC3)n2CCc2ccc(OC)c(OC)c2)cc1OC` [Example 65, 4-[1-(4-Chlorophenyl)cyclobutyl]-3-(3,4-dimethoxyphenethyl)-2-(3,4-dimethoxyphenethylimino)-2,3dihydrothiazole hydrobromide], the inhibition at 1 µM in test [1] was under 50%; in test [2] it was 54%; in test [3] it was under 50%.
Regarding `CN=c1scc(C2(c3ccc4ccccc4c3)CCC2)n1C` [Example 36, 3-Methyl-2-methylimino-4-[1-(2-naphthyl)cyclobutyl]-2,3-dihydrothiazole hydrobromide], the inhibition at 1 µM is 101% in test [1], 108% in test [2] and 101% in test [3].
Turning to `Clc1ccc(C2(C3=CSC4=NCCN34)CCCC2)cc1` [Example 71, 3-[1-(4-Chlorophenyl)cyclopentyl]-5,6-dihydroimidazo[2,1-b]thiazole hydrobromide], the inhibition at 1 µM in test [1] is under 50%; in test [2], 96%; in test [3], 76%.
Consider `CC(C)CN=c1scc(C2(c3ccc4ccccc4c3)CCC2)n1CC(C)C` [Example 41, 3-lsobutyl-2-isobutylimino-4-[1-(2-naphthyl)cyclobutyl]-2,3-dihydrothiazolehydrobromide], for which the figures for the inhibition at 1 µM in test [1], in test [2] and in test [3] were 98%, 107% and 79%, respectively.
For `Cc1ccccc1N=c1scc(C2(c3ccc4ccccc4c3)CCC2)n1-c1ccccc1C` [Example 51, 4-[1-(2-Naphthyl)cyclobutyl)-3-(o-tolyl)-2-(o-tolylimino)-2,3-dihydrothiazole hydrobromide] the same measures were 54%, 69% and under 50%.
Regarding `Cc1ccc(N=c2scc(C3(c4ccc(Cl)c(Cl)c4)CCC3)n2-c2ccc(C)cc2C)c(C)c1` [Example 31, 4-[1-(3,4-Dichlorophenyl)cyclobutyl]-3-(2,4-xylyl)-2-(2,4-xylylimino)-2,3-dihydrothiazole hydrobromide], the inhibition at 1 µM in test [1] is under 50%; in test [2], 63%; in test [3], under 50%.
In the case of `c1coc(CN=c2scc(C3(c4ccc5ccccc5c4)CCC3)n2Cc2ccco2)c1` [Example 48, 3-Furfuryl-2-furfurylimino-4-[1-(2-naphthyl)cyclobutyl]-2,3-dihydrothiazolehydrobromide], the inhibition at 1 µM is 94% in test [1], 101% in test [2] and under 50% in test [3].
On to `c1ccc(CCN=c2scc(C3(c4ccc5ccccc5c4)CCC3)n2CCc2ccccc2)cc1` [Example 46, 4-1-(2-Naphthyl)cyclobutyl]-3-phenethyl-2-phenethylimino-2,3-dihydrothiazole hydrobromide], for which the inhibition at 1 µM in test [1] is 51%; in test [2] it was 98%; in test [3], under 50%.
Regarding `Cc1ccc(N=c2scc(C3(c4ccc(Cl)c(Cl)c4)CCC3)n2-c2ccc(C)cc2)cc1` [Example 28, 4-[1-(3,4-Dichlorophenyl)cyclobutyl]-3-(p-tolyl)-2-(ptolylimino)-2,3-dihydrothiazole hydrobromide], the inhibition at 1 µM is under 50% in test [1], 71% in test [2] and under 50% in test [3].
As for `CCCN=c1scc(C2(c3ccc(Cl)c(Cl)c3)CCC2)n1CCC` [Example 16, 4-[1-(3,4-Dichlorophenyl)cyclobutyl]-3-propyl-2-propylimino-2,3-dihydrothiazole hydrobromide], the inhibition at 1 µM was 102% in test [1], 116% in test [2] and 56% in test [3].
Consider `c1ccc2cc(C3(c4csc(=NCC5CC5)n4CC4CC4)CCC3)ccc2c1` [Example 43, 3-Cyclopropylmethyl-2-cyclopropylmethylimino4-[1-(2-naphthyl)cyclobutyl]-2,3-dihydrothiazole hydrobromide], for which the figures for the inhibition at 1 µM in test [1], in test [2] and in test [3] were 101%, 113% and 93%, respectively.
